melting point	Compound
123 to 126 °C	Cc1cc(C)cc(C(=O)Cc2ccnc(N)c2)c1
69 to 70 °C	CC(=CC(=O)c1cccc(C(F)(F)F)c1)N(C)C
137 to 138 °C	CC(C(=O)O)c1ccc2c(c1)C(=O)c1ccc(Cl)cc1CS2 (stereo not given)
88 to 89.5 °C	CC=COC(=O)C1(S(=O)(=O)C(C)(C)C)C=CC=CC1C[C@H](N)C(=O)O (stereo not given in full)
144 to 145 °C	COc1cc(Oc2ccc(S(C)(=O)=O)cc2)cc2cc(C3=NCC(CC(=O)O)S3)[nH]c12 (stereo not given)
124 to 126 °C	Clc1ccc(-c2cccs2)cn1
90 °C	CS(=O)c1ncc(Br)cn1 (stereo not given)
120 to 122 °C	O=S(=O)(NN=C(Cl)c1ccccc1Br)c1ccccc1
130 to 132 °C	CCOC(=O)c1nc(NC)sc1C(=O)CBr
129 to 131 °C	Cc1ccccc1-c1ccc(C(=O)N2Cc3ccc(C(=O)NCCCCc4ccccc4)n3Cc3ccccc32)cc1C
145 to 148 °C	O=c1cc(Oc2c(Cl)cccc2Cl)c2cc(OC(F)F)ccc2o1
109 to 111 °C	O=C(CCCl)c1ccc(O)c(Cl)c1Cl
103 to 104 °C	Cc1sc(-c2ccccc2)nc1COc1cc(COc2ncccc2CC#N)on1
49 to 50 °C	CC(=O)Oc1cccc2c1OC(C)(C)C2
270 to 273 °C	Cn1nnnc1-c1cn(C)c2cc(Cl)ccc2c1=O
171 to 173 °C	S=C(N=c1ccn(-c2ccccc2)nc1)Nc1ccccc1
138 to 141 °C	COc1cccc2c(CCCCNC3COc4c(F)ccc(C(N)=O)c4C3)coc12 (stereo not given)
151 to 154 °C	CC(C)n1c(/C=C/C2CC(O)CC(=O)O2)c(-c2ccc(F)cc2)c2ccccc2c1=O (stereo not given)
112 °C	COC(=O)c1ccc(OCC(C)NCC(O)c2cccc(Cl)c2)c(C(=O)OC)c1 (stereo not given)
139 to 140 °C	CCc1cn(C2CC(F)C(CO)O2)c(=O)[nH]c1=S (stereo not given)
254 to 256 °C	O=C(CCCNc1c(C(=O)O)[nH]c2cc(Cl)cc(Cl)c12)c1ccccc1
55 to 56 °C	COCOc1c(-c2ccccc2)sc2cnccc12
195 to 198 °C	O=C(Nc1ccccc1)Nc1cnc(-c2ccccc2)nc1-c1ccccc1Cl
193 to 194 °C	Nc1nc2n(n1)Cc1ccccc1-2

melting point	Compound
112 °C	Cc1cc(C2=NCCc3ccccc32)n(C)n1
183 to 186 °C	C#CCN1C(=O)c2cccc3cccc1c23
199 to 202 °C	O=C(O)c1cc2cccnc2nc1C(=O)O
238 to 240 °C	COC(=O)c1cccc(Cn2c(=O)c(=O)n(Cc3cccc(C(=O)O)c3)c3ccc([N+](=O)[O-])cc32)c1
170 to 172 °C	O=c1cc(N2CCOCC2)oc2cc(OCc3ccccc3)ccc12
208 to 210 °C	O=C1CCCN1c1cccc(-n2cnc3cc(-c4ccoc4)cnc32)c1
195 to 197 °C	COC(=O)c1oc(C(C)(C)C)cc1NC(=O)Nc1cccc(Cl)c1Cl
255 to 256 °C	N#CCC1NC(=O)C(Cc2ccccc2)NC1=O (stereo not given)
156 to 158 °C	O=[N+]([O-])c1cc(Cn2nnnc2Sc2ccccc2)cc([N+](=O)[O-])c1
220 to 225 °C	CC(C(=O)O)S(=O)(=O)c1ccc2c(-c3ccccc3F)noc2c1Cl (stereo not given)
169 to 172 °C	O=C(NCc1ccc(Cl)cc1)c1cn2c(CCO)cc3cc(CN4CCOCC4)cc(c1=O)c32
76 to 77 °C	CCOC(=O)c1ccc(COc2ccc3c(c2)C(C)(C)CCC3(C)C)cc1
79 to 85 °C	CN(CC(O)CN(C)S(=O)(=O)C(F)(F)C(F)(F)C(F)(F)C(F)(F)F)S(=O)(=O)C(F)(F)F (stereo not given)
163 to 165 °C	CCOCc1nc2c(N)nc3ccccc3c2n1CCCC(=O)N(C)OC
130 °C	Cc1cc(-n2ccnc2)c2cccc(OCc3c(Cl)ccc(S(=O)(=O)N4CSC[C@H]4C(=O)O)c3Cl)c2n1
114 to 115 °C	CSC(=S)Nc1ccc2c(c1)OCO2
153 °C	Cc1nc(NC(=O)C(c2ccccc2)c2ccccc2)no1
188 to 189 °C	CC(c1ccncc1F)C(O)(Cn1cncn1)c1ccc(F)cc1F (stereo not given)
165 to 167 °C	COc1ccc(-c2c(Cl)ncnc2NS(=O)(=O)c2ccc(OC)cc2)cc1
169 to 173 °C	COc1cc2c3c(c1)c(=O)c(Cc1cccnc1)cn3-c1cc(Br)ccc1S2
67 to 72 °C	Nc1ccc(CCO)c(N)c1
173 to 175 °C	CCS(=O)(=O)C(=CNc1ccc(Cl)cc1)S(=O)(=O)CC
> 250 °C	CC12CCC3c4ccc(O)c([N+](=O)[O-])c4CCC3C1CCC2=O (stereo not given)
96 to 99 °C	O=[N+]([O-])c1ccc(Sc2ccc(OCC3CO3)cc2)cc1 (stereo not given)

melting point	Compound
206 to 208 °C	O=c1nc(-c2ccccc2O)oc2ccccc12
75 to 77 °C	CC(=O)Cc1nc(/C=C/c2cccc(Cl)c2F)no1
318 to 320 °C	CCOc1cc2c(cc1OC)Cc1c([nH]cnc1=O)N2
181 to 182 °C	O=C(/C=C/c1ccn(S(=O)(=O)c2ccc(-c3ccccn3)s2)c1)NO
174 to 175 °C	Cc1c(CC(=O)N(C)O)c2cc(OCc3nc4ccccc4s3)ccc2n1Cc1ccc(Cl)cc1
76 to 77 °C	Cc1cc(Cl)cc(C(=O)CC(=O)C2CCCCC2)c1O
175 to 178 °C	COc1ccc(-c2cnc3cc4cn(CCOC(C)=O)nc4cc3n2)cc1F
89 to 91 °C	N#CC=Cc1ccc(Cl)cc1C(=O)c1ccccc1
100 to 102 °C	c1ccc(-c2cc(-n3ccc4ccccc43)c3ccccc3n2)cc1
124 to 126 °C	CC(=O)Nc1cc(C(C)=O)ccc1OCCCCl
298 °C	CCCn1c(=O)c2[nH]c(-c3cc(C)n(CC(=O)Nc4ccc(Cl)c(Cl)c4)n3)nc2n(CCC)c1=O
163 to 164 °C	Cn1cc(C(=O)Nc2ccccc2-c2ccc(Br)cc2)c(C(F)(F)F)c1
53 to 68 °C	CC1(C)Oc2ccc(CC3SC(=O)NC3=O)cc2CC1c1ccccc1 (stereo not given)
128 to 130 °C	Cc1sc(N)c(C(=O)c2ccc(Br)s2)c1C
85 to 86 °C	CNC(=S)NS(=O)(=O)c1cc(CCNC(=O)c2cc(Cl)ccc2OC)ccc1-c1ccccn1
216 to 218 °C	COc1ccc(C)cc1NC(=O)Nc1ccc2c(c1)C=CN(C(=O)Nc1c(C)cccc1Cl)C2
105 to 107 °C	COc1ccc(C(C)C)c(NC(=O)CN2CCN(CCCSc3nc4ccccc4o3)CC2)c1C(C)C
167 to 172 °C	CC(=O)N1CCc2c(sc(C)c2CCN2CCC(c3noc4ccc(F)cc34)CC2)C1
207 to 209 °C	CCCc1cc(N2CCN(c3ccncc3)CC2)ccc1OCCCC(=O)O
248 to 249 °C	CC(C)(C)C(=O)c1c[nH]c2ncc(-c3cccc(C#N)c3)nc12
216 to 220 °C	O=C(NC(=O)c1c(F)cccc1F)Nc1cc(Cl)c(S(=O)C(F)(F)C(F)F)cc1Cl (stereo not given)
205 to 206 °C	C#CCc1c(C)nc(C)nc1NCc1ccc(-c2ccccc2-c2nnn[nH]2)cc1
143 °C	CC(=O)OCC(C)C1CCC2C3CC=C4CC(O)CCC4(C)C3CCC12C (stereo not given)
135 to 160 °C	CCOCc1nc2c(N)nc3ccccc3c2n1CC1(N(C(N)=O)C(C)C)CCCCC1

melting point	Compound
152 to 154 °C	CC1CCc2c(c(OCc3ccccn3)nn3c(-c4ccccc4)nnc23)C1 (stereo not given)
90 °C	O=c1c2ccccc2ncn1CCN1CCC(c2c[nH]c3ccccc23)CC1
207 to 210 °C	CCOC(=O)C=Cc1ccn(S(=O)(=O)c2ccc3nc[nH]c(=O)c3c2)c1
201 °C	CN(C(Cc1ccc(O)cc1)CN1CCN(c2ccccc2)CC1)S(=O)(=O)c1cccc2cnccc12 (stereo not given)
88 to 92 °C	COC(=O)CCCCCCCNC(=O)C(CO)NS(=O)(=O)c1ccc(Cl)cc1 (racemic)
75 to 76 °C	CC(C)(CO)CCS(N)(=O)=O
382 to 384 °C	O=C(O)c1ccc2c(=O)n3c(nc2c1)C(=Cc1ccccc1)CC3
86 to 88 °C	CCOC(=O)C(C(=O)OC(C)(C)C)c1c([N+](=O)[O-])cc([N+](=O)[O-])c2ccccc12 (stereo not given)
77 to 79 °C	CC(=O)c1nn(-c2c(Cl)cc(C(F)(F)F)cc2Cl)c(N)c1S(C)(=O)=O
136 °C	OC1(COc2cccc3onc(OCC4CCN(CC5(O)CCOCC5)CC4)c23)CCCC1
127 to 128 °C	Nc1c(Cl)nc2ccccc2c1NCc1cc(-c2ccc(F)cc2)no1
288 to 289 °C	O=c1[nH]c2cc(Cl)ccc2c(=O)n1Cc1ccc(Br)cc1F
195 to 196 °C	Oc1ccc2c(c1)SCCc1c-2n(CCCCCN2CCCCC2)c2ccc(O)cc12
216 to 218 °C	NC(=O)c1cc(-n2cncn2)ccc1N
108 to 109 °C	COC(=O)CCc1cc(N)c(O)c(C(C)(C)C)c1
265 to 267 °C	CC1(C)CCn2c(nc(-c3ccncn3)cc2=O)N1
130 to 131 °C	CCCCCCC1c2cc(CC#N)ccc2-c2ccc(CC#N)cc21
68 °C	CN1CCC(OC2c3cccc(OCc4ccccc4)c3CCn3cc(-c4ccccc4)nc32)CC1 (stereo not given)
104 to 105 °C	CCOP(=O)(CNC(C)(c1ccccc1)c1cc(C(C)(C)C)c(O)c(C(C)(C)C)c1)OCC (stereo not given)
179 to 181 °C	COc1cc(Nc2ncc(-c3ccccc3N(C)C(=O)CN3CCOCC3)o2)ccc1-c1cnco1
> 250 °C	Cn1cncc1C(O)(c1ccc(Cl)cc1)c1ccc2[nH]c(=O)cc(-c3cccnc3)c2c1 (stereo not given)

Compound	melting point
CCOC(=O)CN1C(=O)C(NC(=O)Nc2ccc(Cl)cc2)N=C(c2ccccc2F)c2ccccc21 (stereo not given)	253 to 254 °C
COc1cccc2c1C1CN(C)CCN1c1ccccc1C2O (stereo not given)	217 °C
NC(=O)c1ccc2[nH]cc(CCCCN3CC=C(c4ccccc4)CC3)c2c1	200 to 205 °C
Cc1ccc(Cn2cc(C(=O)C(=O)O)c3cc(-c4ccc(OC(F)(F)F)cc4)ccc32)cc1	192 to 193 °C
CCCCCn1c2ccc(C(=O)NC34CC5CC(CC(C5)C3)C4)cc2c2ccc(OC)cc21	141 to 142 °C
CCc1cc2c(s1)-n1c(C)nnc1C(CCC(=O)O)N=C2c1ccc(Cl)cc1 (stereo not given)	210 to 212 °C
CCCC(N)CC(=O)O (stereo not given)	203 °C

— a melting point compilation (Tetko et al.; mined from patent text by program, amines drawn as free bases though some values may be those of a salt)
